# Measured values reported in patent publication US5981774A, “Compounds for the treatment of hepatoma” (National Science Council, priority 1993, dated 1999).
# Columns and labels:
# [1] = system: leukemia cells; conditions: Habib et al., 1987; cited from earlier work
# [2] = system: KB cells; assay: microassay for anticellular effect (cytotoxicity, ED50), KB cells; assay type: cell-based, human; conditions: for IC50: Homo sapiens, 96 h; for inhibitory activity in words (KB): KB cells in vitro
# Procedure: (§1) The name PLC/PRF/5 designates human primary liver cancer cells; the symbol KB designates epidermoid carcinoma cells.
# (§2) PLC/PRF/5 cells were isolated from human hepatoma and are known to produce HBs Ag continuously in culture fluids. The cells were grown as continuous cultures in a growth medium consisting of Dulbecco's modified Eagle medium (DMEM, GIBCO, Grand Island, N.Y.), 10% fetal bovin serum (FBS, GIBCO), 100 IU/ml penicillin, 100 µg/ml streptomycin and 2 mM L-glutamine. The KB cells were maintained on DMEM containing 10% FBS L-glutamine and antibiotics. For the microassay, the growth medium was supplemented further with 10 mM Hepes buffer, pH 7.3.
# (§3) The ED50 values were calculated from a semilog plot of the drug concentration vs. the percentage of viable cells on day 4.
# [3] = system: human hepatoma PLC/PRF/5 cells; assay: microassay for anticellular effect (cytotoxicity, ED50), PLC/PRF/5 cells; assay type: cell-based; conditions: for ED50 (PLC/PRF/5) / IC50: PLC/PRF/5 cells, % viable cells on day 4, n = 8, significant activity requires ED50 < 4.0 ug/ml; for IC50: Homo sapiens; for inhibitory activity in words (PLC/PRF/5): human hepatoma PLC/PRF/5 cells in vitro
# Procedure: as §1, §2, §3
# [4] = system: human PLC/PRF/5 cells; assay: Inhibition of Macromolecular Synthesis ([3H]-thymidine, -uridine or -methionine incorporation), PLC/PRF/5 cells; assay type: cell-based; conditions: for dependence of inhibition of macromolecular biosynthesis on concentration and time (PLC/PRF/5): PLC/PRF/5 cells; for effects on DNA, RNA and protein synthesis (PLC/PRF/5): human PLC/PRF/5 cells, FIGS. 1, 3, 5; for suppression of cellular DNA, RNA and protein synthesis: overall conclusion, cell line not stated
# Procedure: (§4) The activity of compounds 16, 17 and 21 on macromolecular synthesis were determined by measuring the isotopic incorporation of [^3 H]-thymidine, -uridine and -methionine in the human PLC/PRF/5 and KB cells respectively.
# (§5) PLC/PRF/5 cells were obtained from human hepatoma and are known to produce HBs Ag continuously in culture fluids. Human hepatoma PLC/PRF/5 and epidermis carcinoma KB cells were maintained in Dulbeceo's modified Eagle medium (DMEM, Gibco BRL Grand Island, N.Y., U.S.A.), containing 10% fetal bovine serum (FBS, Gibco BRL), 2 mM L-glutamine, 100 units mL-1 penicillin, 100 μg mL-l streptomycin. The 212 cells were maintained in Minimum essential alpha medium (MEM, Gibco BRL), containing 10% calf serum (Gibco BRL). For microassay, the growth medium was supplemented with 10 mM HEPES buffer, pH 7.3 and incubated at 37° C. in a CO2 incubation.
# (§6) Inhibition of Macromolecular Synthesis. The synthesis of macromolecules were measured by the incorporation of ^3 H-thymidine, -uridine or -methionine (New England) Nuclear, Boston, Mass., USA) into the tumor cells. Briefly, the tumor cell (1 1.5×10^4 /100 μl/well) maintained in growth medium with or without drugs in microplates were incubated at 37° C. The cells after pulsed labeling with [^3 H]-thymidine, -uridine, or -methionine for 18 hrs at day 4 post-treatment were harvested and loaded onto glass filter paper (Skatron. Va., USA). The incorporation activities of the cells were measured by the liquid scintillation counter (LS-5000 TA, Beckman Calif., USA). All treatments were conducted in quadruplicate and the mean values were used for analysis. Each experiment was repeated at least 3 times. The data shown are mean counts per minute (CPM)±SEM. Percent inhibition of [^3 H]-thymidine, -uridine, or -methionine incorporation was calculated as follows: [formula]
# [5] = system: epidermis carcinoma KB cells; assay: Inhibition of Macromolecular Synthesis ([3H]-thymidine, -uridine or -methionine incorporation), KB cells; assay type: cell-based, human; conditions: for effects on DNA, RNA and protein synthesis (KB): FIGS. 2, 4, 6
# Procedure: as §4, §5, §6
# [6] = system: KB cells; conditions: KB cells in vitro; Lin et al., 1991, 1992; cited from earlier work
# [7] = system: human hepatoma PLC/PRF/5 cells; conditions: human hepatoma PLC/PRF/5 cells in vitro; Lin et al., 1991, 1992; cited from earlier work
# [8] = KB cells, % viable cells on day 4, n = 8, significant activity requires ED50 < 4.0 ug/ml
compound,measurement,setting,value
"3',4'-deoxy-4'-chloropsorspermin-3'-ol",cytotoxic effects against leukemia cells,[1],strong cytotoxic effects
"3',4'-deoxy-psorospermin",cytotoxic effects against leukemia cells,[1],strong cytotoxic effects
"3',4'=deoxypsorospermin-3',4'-diol",cytotoxic effects against leukemia cells,[1],strong cytotoxic effects
"N.N.[Cl][Pt][Cl] [Cisplatin, reference compound]",ED50 (KB),[2]; [8],0.16 µg/mL
same,ED50 (PLC/PRF/5),[3],5.29 µg/mL
"O=c1c2ccccc2oc2cc(O)ccc12 [Compound 13, 3-hydroxyxanthone]",IC50,[2]; [8],0.77 µg/mL
same,inhibitory activity in words (KB),[2],significant and potent inhibitory activity
same,IC50,"[3]; PLC-PRF-5, 96 h",3.73 µg/mL
same,ED50 (PLC/PRF/5),[3]; 5760 min,3.75 µg/mL
same,inhibitory activity in words (PLC/PRF/5),[3],significant and potent inhibitory activity
"O=c1c2ccccc2oc2cc(OCC3CO3)ccc12 (stereo not shown) [Compound 14, 3-(2,3-Epoxypropoxy)xanthone]",IC50,[2]; [8],0.85 µg/mL
same,IC50,[3]; 96 h,1.43 µg/mL
same,inhibitory activity in words (PLC/PRF/5),[3],enhanced very markedly the inhibitory effects
"O=c1c2ccc(OCC3CO3)cc2oc2ccc(OCC3CO3)cc12 (stereo not shown) [Compound 16, 2,6-di(2,3-epoxypropoxy) xanthone]",IC50,[2]; [8],0.0043 µg/mL
same,inhibitory activity in words (KB),[2],more potent inhibitory activity
same,ED50 potency relative to cisplatin (KB),"[2]; KB cells, versus cisplatin",over 40 times
same,IC50,[3]; 96 h,0.23 µg/mL
same,dependence of inhibition of macromolecular biosynthesis on concentration and time (PLC/PRF/5),[4],correlated with the concentration and the period of drug treatment
same,"effects on DNA, RNA and protein synthesis (PLC/PRF/5)",[4],effects are significant at low concentration
same,"suppression of cellular DNA, RNA and protein synthesis",[4],"suppress cellular DNA, RNA and protein synthesis"
same,dependence of inhibition of macromolecular biosynthesis on concentration and time (KB),[5],only correlated with the concentration of drug treatment
same,"effects on DNA, RNA and protein synthesis (KB)",[5],not apparent
"O=c1c2ccc(OCC3CO3)cc2oc2cc(OCC3CO3)ccc12 (stereo not shown) [Compound 17, 3,6-di(2,3-epoxypropxy)xanthone]",IC50,[2]; [8],0.11 µg/mL
same,IC50,[3]; 96 h,0.24 µg/mL
same,dependence of inhibition of macromolecular biosynthesis on concentration and time (PLC/PRF/5),[4],correlated with the concentration and the period of drug treatment
same,"effects on DNA, RNA and protein synthesis (PLC/PRF/5)",[4],effects are significant at low concentration
same,"suppression of cellular DNA, RNA and protein synthesis",[4],"suppress cellular DNA, RNA and protein synthesis"
same,dependence of inhibition of macromolecular biosynthesis on concentration and time (KB),[5],only correlated with the concentration of drug treatment
same,"effects on DNA, RNA and protein synthesis (KB)",[5],not apparent
"O=c1c2cccc(OCC3CO3)c2oc2cc(OCC3CO3)cc(O)c12 (stereo not shown) [Compound 21, 3,5-di(2,3-epoxypropoxy)-1-hydroxyxanthone]",IC50,[2]; [8],0.089 µg/mL
same,inhibitory activity in words (KB),[2],significant novel inhibitory activity
same,IC50,[3]; 96 h,0.061 µg/mL
same,inhibitory activity in words (PLC/PRF/5),[3],significant novel inhibitory activity
same,dependence of inhibition of macromolecular biosynthesis on concentration and time (PLC/PRF/5),[4],correlated with the concentration and the period of drug treatment
same,"effects on DNA, RNA and protein synthesis (PLC/PRF/5)",[4],effects are significant at low concentration
same,"suppression of cellular DNA, RNA and protein synthesis",[4],"suppress cellular DNA, RNA and protein synthesis"
same,dependence of inhibition of macromolecular biosynthesis on concentration and time (KB),[5],only correlated with the concentration of drug treatment
same,"effects on DNA, RNA and protein synthesis (KB)",[5],not apparent
COc1cc2c(c3oc4c(O)cccc4c(=O)c13)C[C@H]([C@@]1(C)CO1)O2 [Psorospermin],cytotoxic effects against leukemia cells,[1],strong cytotoxic effects
C=C(C)C1Cc2c(oc3c4c(cc(O)c3c2=O)OC(C)(C)C=C4)-c2c(O)cc(OC)c(O)c21 (stereo not shown) [artomunoxanthone],"cytotoxic effects (KB), isolated natural compounds",[6],exhibited cytotoxic effects
same,"cytotoxic effects (PLC/PRF/5), isolated natural compounds",[7],exhibited cytotoxic effects
COc1cc2c(cc1O)-c1oc3c4c(cc(O)c3c(=O)c1C(C=C(C)C)O2)OC(C)(C)C=C4 (stereo not shown) [cycloartomunin],"cytotoxic effects (KB), isolated natural compounds",[6],exhibited cytotoxic effects
same,"cytotoxic effects (PLC/PRF/5), isolated natural compounds",[7],exhibited cytotoxic effects
CC(C)=CC1Oc2cc(O)ccc2-c2oc3cc(O)c(/C=C/C(C)C)c(O)c3c(=O)c21 (stereo not shown) [cyclocommunin],"cytotoxic effects (KB), isolated natural compounds",[6],exhibited cytotoxic effects
same,"cytotoxic effects (PLC/PRF/5), isolated natural compounds",[7],exhibited cytotoxic effects
CC(C)=CC1Oc2cc(O)ccc2-c2oc3cc(O)cc(O)c3c(=O)c21 (stereo not shown) [cyclocommunol],"cytotoxic effects (KB), isolated natural compounds",[6],exhibited cytotoxic effects
same,"cytotoxic effects (PLC/PRF/5), isolated natural compounds",[7],exhibited cytotoxic effects
CC(C)=CC1Oc2cc(O)ccc2-c2oc3c4c(cc(O)c3c(=O)c21)OC(C)(C)C=C4 (stereo not shown) [cyclomorusin],"cytotoxic effects (KB), isolated natural compounds",[6],exhibited cytotoxic effects
same,"cytotoxic effects (PLC/PRF/5), isolated natural compounds",[7],exhibited cytotoxic effects
"O^5 -methyl-3',4'-deoxypsorospermin-3'-ol",cytotoxic effects against leukemia cells,[1],strong cytotoxic effects
artomunoxanth-otrione epoxide,"cytotoxic effects (KB), isolated natural compounds",[6],exhibited cytotoxic effects
same,"cytotoxic effects (PLC/PRF/5), isolated natural compounds",[7],exhibited cytotoxic effects
cyclo-mulberrin,"cytotoxic effects (KB), isolated natural compounds",[6],exhibited cytotoxic effects
same,"cytotoxic effects (PLC/PRF/5), isolated natural compounds",[7],exhibited cytotoxic effects
dihydrocyclo-artomunin,"cytotoxic effects (KB), isolated natural compounds",[6],exhibited cytotoxic effects
same,"cytotoxic effects (PLC/PRF/5), isolated natural compounds",[7],exhibited cytotoxic effects
dihydroisocycloartomunin,"cytotoxic effects (KB), isolated natural compounds",[6],exhibited cytotoxic effects
same,"cytotoxic effects (PLC/PRF/5), isolated natural compounds",[7],exhibited cytotoxic effects
